Experimental data: US8444970B2, “Compositions and methods for treating ocular diseases and conditions” (Lpath, Inc., priority 2006, dated 2013)
Several values for one entry are separate records, joined by “and”; a condition that tells them apart may be missing. Equal values may be shown once.

Columns and labels:
[1] = system: endothelial cell (EC) infiltration into Matrigel plugs; assay: In vivo Matrigel plug assay, S1P-supplemented plugs, EC infiltration; design: species or system mouse; conditions: plugs containing S1P
Description: Based on in vivo studies showing that S1P increased endothelial capillary growth into subcutaneously implanted Matrigel plugs, we speculated that SPHINGOMAB could reduce de novo BV formation in vivo. To investigate this, we employed the in vivo Matrigel Plug assay for neovascularization. In one set of experiments, Matrigel was supplemented with either […], 0.5 μg/mL bFGF or 1 μg/mL VEGF and then injected […]. into mice (n=4). After 10 days, the mice were heparinized and injected with the fluorescent lectin, Isolectin B4-FITC, which binds to adhesion molecules expressed by vascular EC that form the growing BVs. The plugs were then excised, frozen in OCT, sectioned and viewed for FITC-stained BVs.
Sections of the plugs were then stained with hemotoxyln & eosin for evaluation of EC infiltration (FIG. 6B). The infiltration of ECs is a critical step in neo-vascularization. […] Cell infiltration is presumed to be ECs although we recognize that other cell types such as immune cells may also be stained.

[2] = system: human retinal pigmented epithelial cells; assay: alpha-SMA expression in retinal pigmented epithelial cells; format: cell-based
Source text: (§1) In many of these disorders, circulating growth factors and chemokines promote the transformation of normal ocular cells into fibrocontractile, scar tissue-producing cells that have been termed “myofibroblasts”. Normally, myofibroblasts are responsible for tissue repair as part of the wound healing response following injury. However altered number and function of myofibroblasts are implicated in diseases characterized by pathological scar tissue formation in the liver, skin, lung, kidney, heart and eyes. In the eye, transformation of retinal pigmented epithelial (RPE) cells to a myofibroblast phenotype is linked to formation of fibro-contractile membranes which cause retinal detachment and subsequent vision impairment. In addition, myofibroblast transformation of ocular fibroblasts can result in abnormal scar tissue production after eye injury leading to subsequent vision loss. Although many of the circulating protein factors in the eye that promote myofibroblast formation have been identified, nothing is known regarding the role of lysolipids such as S1P in this process. Therefore, we examined the effects of S1P on myofibroblast transformation of several human ocular cell lines.
(§2) In these experiments, the ability of S1P to promote α-SMA expression differed in a concentration dependent manner between the retinal pigmented epithelial cells and conjunctiva fibroblasts. […]

[3] = system: human conjunctiva fibroblasts; assay: alpha-SMA expression in conjunctiva fibroblasts; format: cell-based; conditions: 10 uM S1P (only at this concentration)
Source text: as §1, §2

[4] = system: COLO205 colorectal tumor xenograft; assay: SC COLO205 colorectal tumor xenograft in nude NCr mice; format: in vivo, mouse; conditions: LT1009 50 mg/kg ip q3d; Avastin 40 mg/kg iv q7d; Paclitaxel 15 mg/kg iv q1dx5
Description: Nude mice were implanted sc near the right flank with one fragment per mouse of COLO 205 tumor from an in vivo passage. All treatments were initiated the day when 60 mice in each experiment established tumors ranging in size from approximately 100 to 200 mm3. […] Avastin was administered iv at a dosage of 40 mg/kg/dose on a q7d schedule, injected in a volume of 0.1 mL/20 g body weight. Paclitaxel (positive control), was administered iv at a dosage of 15 mg/kg/dose on a q1d×5 schedule, injected in a volume of 0.1 mL/10 g body weight.
(§3) Animals were observed daily for mortality. Tumor dimensions and body weights were collected twice weekly starting with the first day of treatment and including the day of study termination. When the median tumor in the vehicle-treated control group in each study reached approximately 4,000 mg, the study was terminated. Tumors from each animal were harvested, wet weights were recorded, tumors were processed for determination of microvascular densities (MVD) by CD-31 staining. Tumor weights (mg) were calculated using the equation for an ellipsoid sphere (l×w^2)/2=mm^3, where l and w refer to the larger and smaller dimensions collected at each measurement and assuming unit density (1 mm3=1 mg).

[5] = system: HT29 colon tumor xenografts; assay: SC HT29 colorectal tumor xenograft in nude NCr mice; format: in vivo, mouse; conditions: LT1009 50 mg/kg ip q2d; Avastin 20 mg/kg iv q4d; 5-FU 75 mg/kg ip q4d
Description: Nude mice were implanted sc near the right flank with one fragment per mouse of HT29 tumor from an in vivo passage. All treatments were initiated the day when 60 mice in each experiment established tumors ranging in size from approximately 100 to 200 mm^3. There were ten mice per treatment group. […] 75 mg/kg 5-FU and 20 mg/kg Avastin were administered ip and iv at a dosage of 75 mg/kg/dose and 20 mg/kg/dose, respectively, q4d, injected in a volume of 0.1 mL/10 g body weight.
as §3, with “recorded, and” for “recorded,”, “MVD” for “microvascular densities (MVD)”, “mm^3=1” for “mm3=1”

[6] = system: DU145 prostate tumor xenograft; assay: SC DU145 prostate tumor xenograft in nude NCr mice; format: in vivo, mouse; conditions: LT1009 50 mg/kg ip q2d; Avastin 20 mg/kg q4d; Paclitaxel 7.5 mg/kg q1dx5
Description: Nude mice were implanted sc near the right flank with one fragment per mouse of DU145 tumor from an in vivo passage. All treatments were initiated the day when 60 mice in each experiment established tumors ranging in size from approximately 100 to 200 mm^3. […] Paclitaxel and Avastin were administered iv and ip at a dosage of 7.5 mg/kg/dose and 20 mg/kg/dose, q1d×5 and q4d, respectively, injected in a volume of 0.1 mL/10 g body weight.
During the course of the study tumor growth was monitored by measuring the sc tumors on three axes and calculating the volume. At the end of the study final tumor weights and volumes were determined and then the mice were sacrificed, the tumors harvested. Microvascular densities (MVD) of the tumors were then determined by CD-31 staining.

[7] = system: peripheral lymphocyte counts; conditions: single oral dose; cited from earlier work

CCCCCCCCCCCCC/C=C/[C@@H](O)[C@@H](N)COP(=O)(O)O [S1P, sphingosine-1-phosphate]
increase of EC infiltration vs Matrigel only plugs [1]: 3 fold
alpha-SMA expression ([2]; 0.001 uM S1P): significant increase
alpha-SMA expression ([2]; 10 uM S1P): decreased to basal levels
alpha-SMA expression [3]: significant increase

Avastin: anti-angiogenic drug, bevacizumab (Avastin, Genentech)
% Reduction compared to Vehicle-Treated Mice [4]: 35%
% Reduction compared to Vehicle-Treated Mice [5]: 30%
% Reduction compared to Vehicle-Treated Mice [6]: 80% and 79%

CCCCCCCCc1ccc(CCC(N)(CO)CO)cc1 [FTY720]
reduction of peripheral lymphocyte counts [7]: 30-70%
